Results published in PubChem BioAssay (NCI).
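48-hour exposure; five concentrations; linearly interpolated endpoints. Here, GI50 denotes the concentration required for 50% inhibition of growth. TGI: total growth inhibition.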

How the values were obtained:
Experiment in all cases: NCI tumour cell line growth inhibition, 48 h
NCI/ADR-RES ovarian = test system: NCI/ADR-RES ovarian
HOP-62 NSCLC = test system: HOP-62 NSCLC
HL-60(TB) leukemia = test system: HL-60(TB) leukemia
A549 NSCLC = test system: A549 NSCLC
U251 CNS = test system: U251 CNS
EKVX NSCLC = test system: EKVX NSCLC
SK-MEL-2 melanoma = test system: SK-MEL-2 melanoma
OVCAR-3 ovarian = test system: OVCAR-3 ovarian
PC-3 prostate = test system: PC-3 prostate
RPMI-8226 leukemia = test system: RPMI-8226 leukemia
MDA-MB-231 breast = test system: MDA-MB-231 breast
T-47D breast = test system: T-47D breast
BT-549 breast = test system: BT-549 breast
ACHN renal = test system: ACHN renal
SK-MEL-5 melanoma = test system: SK-MEL-5 melanoma
SN12C renal = test system: SN12C renal
SR leukemia = test system: SR leukemia
UACC-257 melanoma = test system: UACC-257 melanoma
OVCAR-8 ovarian = test system: OVCAR-8 ovarian
HS 578T breast = test system: HS 578T breast
SK-OV-3 ovarian = test system: SK-OV-3 ovarian
K-562 leukemia = test system: K-562 leukemia
LOX IMVI melanoma = test system: LOX IMVI melanoma
M14 melanoma = test system: M14 melanoma
KM12 colon = test system: KM12 colon
SF-295 CNS = test system: SF-295 CNS
UO-31 renal = test system: UO-31 renal
COLO 205 colon = test system: COLO 205 colon
786-0 renal = test system: 786-0 renal
OVCAR-4 ovarian = test system: OVCAR-4 ovarian
NCI-H522 lung = test system: NCI-H522 lung
HOP-92 NSCLC = test system: HOP-92 NSCLC
OVCAR-5 ovarian = test system: OVCAR-5 ovarian
TK-10 renal = test system: TK-10 renal
RXF 393 renal = test system: RXF 393 renal
SNB-19 CNS = test system: SNB-19 CNS
SW-620 colon = test system: SW-620 colon
SNB-75 CNS = test system: SNB-75 CNS
UACC-62 melanoma = test system: UACC-62 melanoma
SK-MEL-28 melanoma = test system: SK-MEL-28 melanoma
MDA-MB-435 = test system: MDA-MB-435
NCI-H460 lung = test system: NCI-H460 lung
IGROV1 ovarian = test system: IGROV1 ovarian
HCT-15 colon = test system: HCT-15 colon
HCC-2998 colon = test system: HCC-2998 colon
CAKI-1 renal = test system: CAKI-1 renal
HCT-116 colon = test system: HCT-116 colon
CCRF-CEM leukemia = test system: CCRF-CEM leukemia
DU-145 prostate = test system: DU-145 prostate

Cc1c(-c2ccnc(N)n2)c2c(n1-c1ccccc1)C(=O)c1ccccc1C2=O
GI50 (NCI/ADR-RES ovarian): 15.8 µM | TGI (NCI/ADR-RES ovarian): 66.8 µM | GI50 (HOP-62 NSCLC): 6.61 µM | TGI (HOP-62 NSCLC): 37.6 µM | GI50 (HL-60(TB) leukemia): 7.83 µM | TGI (HL-60(TB) leukemia): 30.4 µM | GI50 (A549 NSCLC): 36.1 µM | TGI (A549 NSCLC): > 100 µM | GI50 (U251 CNS): 18.9 µM | TGI (U251 CNS): 74.9 µM | GI50 (EKVX NSCLC): 21.5 µM | TGI (EKVX NSCLC): 63.7 µM | GI50 (SK-MEL-2 melanoma): 22.9 µM | TGI (SK-MEL-2 melanoma): 57.2 µM | GI50 (OVCAR-3 ovarian): 12.3 µM | TGI (OVCAR-3 ovarian): 30.6 µM | GI50 (PC-3 prostate): > 100 µM | TGI (PC-3 prostate): > 100 µM | GI50 (RPMI-8226 leukemia): > 100 µM | TGI (RPMI-8226 leukemia): > 100 µM | GI50 (MDA-MB-231 breast): 19.7 µM | TGI (MDA-MB-231 breast): 63.3 µM | GI50 (T-47D breast): 51.4 µM | TGI (T-47D breast): > 100 µM | GI50 (BT-549 breast): 6.3 µM | TGI (BT-549 breast): 29.9 µM | GI50 (ACHN renal): 19.6 µM | TGI (ACHN renal): 77.7 µM | GI50 (SK-MEL-5 melanoma): 16.2 µM | TGI (SK-MEL-5 melanoma): 34.1 µM | GI50 (SN12C renal): 14.7 µM | TGI (SN12C renal): 53.8 µM | GI50 (SR leukemia): 1.01 µM | TGI (SR leukemia): 3.84 µM | GI50 (UACC-257 melanoma): 34.2 µM | TGI (UACC-257 melanoma): 91.9 µM | GI50 (OVCAR-8 ovarian): 17.2 µM | TGI (OVCAR-8 ovarian): > 100 µM | GI50 (HS 578T breast): 22.4 µM | TGI (HS 578T breast): 60.8 µM | GI50 (SK-OV-3 ovarian): 39.3 µM | TGI (SK-OV-3 ovarian): > 100 µM | GI50 (K-562 leukemia): 3.78 µM | TGI (K-562 leukemia): 25.5 µM | GI50 (LOX IMVI melanoma): 10.6 µM | TGI (LOX IMVI melanoma): 24.2 µM | GI50 (M14 melanoma): 46.8 µM | TGI (M14 melanoma): > 100 µM | GI50 (KM12 colon): 16.8 µM | TGI (KM12 colon): 45.8 µM | GI50 (SF-295 CNS): 14 µM | TGI (SF-295 CNS): 30.7 µM | GI50 (UO-31 renal): 13.5 µM | TGI (UO-31 renal): 51.1 µM | GI50 (COLO 205 colon): 44 µM | TGI (COLO 205 colon): > 100 µM | GI50 (786-0 renal): 25.6 µM | TGI (786-0 renal): > 100 µM | GI50 (OVCAR-4 ovarian): 58.3 µM | TGI (OVCAR-4 ovarian): > 100 µM | GI50 (NCI-H522 lung): 13.2 µM | TGI (NCI-H522 lung): 37.2 µM | GI50 (HOP-92 NSCLC): > 100 µM | TGI (HOP-92 NSCLC): > 100 µM | GI50 (OVCAR-5 ovarian): 23.4 µM | TGI (OVCAR-5 ovarian): 97.5 µM | GI50 (TK-10 renal): 20.2 µM | TGI (TK-10 renal): 63.3 µM | GI50 (RXF 393 renal): 22.1 µM | TGI (RXF 393 renal): 56.5 µM | GI50 (SNB-19 CNS): 70 µM | TGI (SNB-19 CNS): > 100 µM | GI50 (SW-620 colon): 38.9 µM | TGI (SW-620 colon): > 100 µM | GI50 (SNB-75 CNS): 30 µM | TGI (SNB-75 CNS): > 100 µM | GI50 (UACC-62 melanoma): 27.2 µM | TGI (UACC-62 melanoma): 77.2 µM | GI50 (SK-MEL-28 melanoma): 41.8 µM | TGI (SK-MEL-28 melanoma): > 100 µM | GI50 (MDA-MB-435): 25.2 µM | TGI (MDA-MB-435): 67.3 µM | GI50 (NCI-H460 lung): 17.6 µM | TGI (NCI-H460 lung): 60 µM | GI50 (IGROV1 ovarian): 4.86 µM | TGI (IGROV1 ovarian): 39 µM | GI50 (HCT-15 colon): 16 µM | TGI (HCT-15 colon): > 100 µM | GI50 (HCC-2998 colon): 19.7 µM | TGI (HCC-2998 colon): 46.5 µM | GI50 (CAKI-1 renal): 17 µM | TGI (CAKI-1 renal): 62.6 µM | GI50 (HCT-116 colon): 14.3 µM | TGI (HCT-116 colon): > 100 µM | GI50 (CCRF-CEM leukemia): > 100 µM | TGI (CCRF-CEM leukemia): > 100 µM | GI50 (DU-145 prostate): 21.1 µM | TGI (DU-145 prostate): 60.7 µM
